Test results: ChEMBL document CHEMBL1201862, “PubChem BioAssay data set” (2004)
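How tested: cells in 96-well plates exposed to compound for 48 hours at five concentrations. GI50 marks 50% less growth.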 The source made the active and inactive calls. Cut-off read from the data, not from the text of the source: active = GI50 up to about 1.1 µM and inactive = higher.

How the values were obtained:
Test in all cases: NCI-60 cell line screen, 48 h
ACHN = system: ACHN
COLO 205 = system: COLO 205
NCI-H460 = system: NCI-H460
HOP-18 = system: HOP-18
LOX IMVI = system: LOX IMVI
SW-620 = system: SW-620
TK-10 = system: TK-10
HCT-15 = system: HCT-15
UACC-257 = system: UACC-257
OVCAR-3 = system: OVCAR-3
OVCAR-5 = system: OVCAR-5
DMS-273 = system: DMS-273
K562 = system: K562
786-0 = system: 786-0
UO-31 = system: UO-31
RXF 393 = system: RXF 393
SK-OV-3 = system: SK-OV-3
KM12 = system: KM12
SK-MEL-28 = system: SK-MEL-28
NCI-H23 = system: NCI-H23
XF498 = system: XF498
M14 = system: M14
UACC-62 = system: UACC-62
HCT-116 = system: HCT-116
HL-60 = system: HL-60
EKVX = system: EKVX
SNB-19 = system: SNB-19
RXF 631 = system: RXF 631
U-251 = system: U-251
OVCAR-8 = system: OVCAR-8
NCI-H522 = system: NCI-H522
HT-29 = system: HT-29
KM-20L2 = system: KM-20L2
OVCAR-4 = system: OVCAR-4
SF-539 = system: SF-539
A549 = system: A549
SN12C = system: SN12C
A498 = system: A498
SF-268 = system: SF-268
SNB-75 = system: SNB-75
SK-MEL-2 = system: SK-MEL-2
LXFL 529 = system: LXFL 529
HOP-92 = system: HOP-92
SNB-78 = system: SNB-78
DMS-114 = system: DMS-114
SF-295 = system: SF-295
IGROV-1 = system: IGROV-1
RPMI-8226 = system: RPMI-8226
Malme-3M = system: Malme-3M
M19-MEL = system: M19-MEL
MOLT-4 = system: MOLT-4
CCRF-CEM = system: CCRF-CEM
DLD-1 = system: DLD-1
NCI-H226 = system: NCI-H226
HCC 2998 = system: HCC 2998
SR = system: SR
HOP-62 = system: HOP-62
SK-MEL-5 = system: SK-MEL-5

O/N=C1/C(=C/c2ccccc2)CCCC1C(NO)c1ccccc1 (centres undefined)
GI50 (ACHN): 68.4 µM (inactive)
GI50 (COLO 205): > 100 µM (inactive)
GI50 (NCI-H460): 79.6 µM (inactive)
GI50 (HOP-18): > 100 µM (inactive)
GI50 (LOX IMVI): > 100 µM (inactive)
GI50 (SW-620): > 100 µM (inactive)
GI50 (TK-10): > 100 µM (inactive)
GI50 (HCT-15): > 100 µM
GI50 (UACC-257): 38.5 µM (inactive)
GI50 (OVCAR-3): > 100 µM (inactive)
GI50 (OVCAR-5): > 100 µM (inactive)
GI50 (DMS-273): > 100 µM (inactive)
GI50 (K562): 3.31 µM (inactive)
GI50 (786-0): > 100 µM (inactive)
GI50 (UO-31): 57.1 µM (inactive)
GI50 (RXF 393): 34.8 µM (inactive)
GI50 (SK-OV-3): > 100 µM (inactive)
GI50 (KM12): 85.3 µM (inactive)
GI50 (SK-MEL-28): > 100 µM (inactive)
GI50 (NCI-H23): 59.2 µM (inactive)
GI50 (XF498): 28.1 µM (inactive)
GI50 (M14): 84.9 µM (inactive)
GI50 (UACC-62): 70.3 µM (inactive)
GI50 (HCT-116): 48.1 µM (inactive)
GI50 (HL-60): 2.29 µM (inactive)
GI50 (EKVX): 61.9 µM (inactive)
GI50 (SNB-19): 91.4 µM (inactive)
GI50 (RXF 631): > 100 µM (inactive)
GI50 (U-251): > 10 µM (inactive)
GI50 (OVCAR-8): 64 µM (inactive)
GI50 (NCI-H522): 45.7 µM (inactive)
GI50 (HT-29): > 100 µM (inactive)
GI50 (KM-20L2): > 100 µM (inactive)
GI50 (OVCAR-4): 31.3 µM (inactive)
GI50 (SF-539): > 100 µM (inactive)
GI50 (A549): 40.1 µM (inactive)
GI50 (SN12C): 69.8 µM (inactive)
GI50 (A498): > 100 µM (inactive)
GI50 (SF-268): 55.7 µM (inactive)
GI50 (SNB-75): > 100 µM (inactive)
GI50 (SK-MEL-2): > 100 µM (inactive)
GI50 (LXFL 529): 49.1 µM (inactive)
GI50 (HOP-92): 33.3 µM (inactive)
GI50 (SNB-78): 50.6 µM (inactive)
GI50 (DMS-114): 30.7 µM (inactive)
GI50 (SF-295): 78.3 µM (inactive)
GI50 (IGROV-1): > 100 µM (inactive)
GI50 (RPMI-8226): 35.5 µM (inactive)
GI50 (Malme-3M): 44.2 µM (inactive)
GI50 (M19-MEL): 68.4 µM (inactive)
GI50 (MOLT-4): 26.4 µM (inactive)

CC1(C)CC(=O)C/C(=N/c2ccc([N+](=O)[O-])cc2)C1
GI50 (CCRF-CEM): 20.4 µM (inactive)
GI50 (ACHN): > 100 µM (inactive)
GI50 (COLO 205): 29.6 µM (inactive)
GI50 (NCI-H460): > 100 µM (inactive)
GI50 (HOP-18): > 100 µM (inactive)
GI50 (LOX IMVI): 19.2 µM (inactive)
GI50 (TK-10): > 100 µM (inactive)
GI50 (HCT-15): 64.3 µM
GI50 (DLD-1): 21.1 µM (inactive)
GI50 (UACC-257): > 100 µM (inactive)
GI50 (OVCAR-3): 76.4 µM (inactive)
GI50 (OVCAR-5): > 100 µM (inactive)
GI50 (DMS-273): > 100 µM (inactive)
GI50 (K562): 35.6 µM (inactive)
GI50 (NCI-H226): > 100 µM (inactive)
GI50 (786-0): > 100 µM (inactive)
GI50 (HCC 2998): > 100 µM (inactive)
GI50 (UO-31): 54.6 µM (inactive)
GI50 (RXF 393): 47.4 µM (inactive)
GI50 (SK-OV-3): > 100 µM (inactive)
GI50 (KM12): > 100 µM (inactive)
GI50 (SK-MEL-28): > 100 µM (inactive)
GI50 (NCI-H23): > 100 µM (inactive)
GI50 (XF498): > 100 µM (inactive)
GI50 (M14): > 100 µM (inactive)
GI50 (SR): 57 µM (inactive)
GI50 (UACC-62): > 100 µM (inactive)
GI50 (HCT-116): 17.6 µM (inactive)
GI50 (HL-60): 80.5 µM (inactive)
GI50 (EKVX): > 100 µM (inactive)
GI50 (RXF 631): > 100 µM (inactive)
GI50 (U-251): 16.3 µM (inactive)
GI50 (OVCAR-8): > 100 µM (inactive)
GI50 (NCI-H522): 40.9 µM (inactive)
GI50 (HT-29): 87.3 µM (inactive)
GI50 (KM-20L2): > 100 µM (inactive)
GI50 (A549): > 100 µM (inactive)
GI50 (HOP-62): > 100 µM (inactive)
GI50 (SN12C): 71.8 µM (inactive)
GI50 (SK-MEL-5): > 100 µM (inactive)
GI50 (A498): > 100 µM (inactive)
GI50 (SF-268): > 100 µM (inactive)
GI50 (SNB-75): > 100 µM (inactive)
GI50 (SK-MEL-2): > 100 µM (inactive)
GI50 (LXFL 529): > 100 µM (inactive)
GI50 (SNB-78): > 100 µM (inactive)
GI50 (DMS-114): 41.4 µM (inactive)
GI50 (SF-295): > 100 µM (inactive)
GI50 (IGROV-1): > 100 µM (inactive)
GI50 (RPMI-8226): 53.5 µM (inactive)
GI50 (Malme-3M): > 100 µM (inactive)
GI50 (M19-MEL): 66.2 µM (inactive)
GI50 (MOLT-4): 58.6 µM (inactive)
